Results: US5977435A, “Plant phosphatases” (Performance Plants, Inc., priority 1997, dated 1999)
Counter-ions that a name gives are not always drawn. Like-named read-outs stand apart in the source and are kept apart here.

How the values were obtained:
potato phosphatase [1] = target: T1, potato phosphatase (Solanum tuberosum, UniProt Q6J5M8); assay: biochemical; format: biochemical; set-up: mature chain from Thr30, C-terminus not determined
T1 sequence (Q6J5M8 with tags, fused parts or gaps V118I/E238V/S277N/V282G/E319A/A394T/S415A/T416I/D418E/I426Y/H428S/N437A): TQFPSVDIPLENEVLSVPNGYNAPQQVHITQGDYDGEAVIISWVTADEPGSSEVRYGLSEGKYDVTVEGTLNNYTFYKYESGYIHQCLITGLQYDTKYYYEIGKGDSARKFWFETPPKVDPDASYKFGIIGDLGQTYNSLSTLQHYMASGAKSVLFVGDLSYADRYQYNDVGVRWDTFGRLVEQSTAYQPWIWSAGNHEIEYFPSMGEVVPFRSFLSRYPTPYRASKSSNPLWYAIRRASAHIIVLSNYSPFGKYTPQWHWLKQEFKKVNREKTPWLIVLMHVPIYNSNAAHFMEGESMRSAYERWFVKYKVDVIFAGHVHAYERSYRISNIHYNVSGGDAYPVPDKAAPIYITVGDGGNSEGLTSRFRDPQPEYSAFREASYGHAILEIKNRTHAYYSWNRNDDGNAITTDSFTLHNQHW
Description: Enzyme activity in the presence of effectors is expressed relative to the control set at 100%.
(§1) Assays were initiated by the addition of enzyme preparation. One unit of phosphatase activity is defined as the quantity of enzyme that would catalyze the hydrolysis of 1 […] of substrate/min at 25° C.

potato phosphatase [2] = target: T1, potato phosphatase; assay: biochemical; format: biochemical; set-up: mature chain from Thr30, C-terminus not determined; conditions: for activation of the phosphatase: 4 mM, added as Cl- salt, Ca, Co, Mn with no added Mg2+
Description: Unless otherwise stated all kinetic studies of the potato phosphatase were performed with PEP using assay A (infra).
The phosphatase was activated approximately 40% in the presence of saturating (4 mM) Mg^2+ (added as MgCl2). Ca^2+, Co^2+, and Mn^2+ were individually tested as Cl^- salts at 4 mM, with no added Mg^2+, and found to uniformly activate the enzyme by about 30%. […]. […] All subsequent kinetic studies were conducted in the presence of 4 mM MgCl2.
as §1

potato phosphatase [3] = target: T1, potato phosphatase; assay: Phosphatase assay B, substrate specificity; conditions: for activity of purified enzyme with compound as substrate: tested at 5 mM; for Vmax: pH 5.8, 25° C
Description: Phosphatase activity was determined using assay B and a wide range of compounds, tested at a total concentration of 5 mM unless otherwise specified.
Phosphatase (0.05 units) was incubated in 1.5 mL cuvettes with 0.9 mL of 50 mM MES-NaOH (pH 5.8) containing 4 mM MgCl2 and an alternative substrate (5 mM unless otherwise indicated) for 6 min at 25° C. Reactions were terminated by the sequential addition of 0.1 mL reagent A (3 M H2 SO4 containing 20 mM ammonium molybdate) and […] of 1% (v/v) Triton X-100. Samples were incubated at 25° C. for 20 min and the A660 was determined. To calculate activities, a standard curve over the range of […] Pi was constructed for each set of assays. Assays were performed in triplicate and controls were run for background amounts of Pi present at each substrate concentration by adding reagent A before the enzyme.

[4] = test system: potato tuber phosphotyrosyl proteins; assay: Dephosphorylation of potato tuber phosphotyrosyl proteins by potato tuber phosphatase; format: biochemical, Solanum tuberosum; conditions: 1 mM present during incubation
Description: A desalted potato tuber extract was incubated at 25° C. in the absence (-) and presence (+) of 30 units/mL purified potato tuber phosphatase. Aliquots were removed at 2 and 19 h and analyzed by immunoblotting using anti-(P-Tyr) IgG (Kamps and Sefton, 1988). The relative P-Tyr content of the 7 antigenic polypeptides was estimated by laser densitometric quantification of the immunoblots as described in the examples. Unless otherwise noted, all values represent the means±SE of triplicate determinations. ^a, the mean of duplicate determinations.
Electroblotting was performed by the method of Moorhead and Plaxton (1990), with the addition of […] o-vanadate to the transfer buffer when maintenance of phosphotyrosyl residues was desired. All immunoblots to be probed with the anti-(black mustard PEP-specific phosphatase) IgG (Duff et al, 1991a) were first pre-treated with sodium m-periodate according to Laine (1988) so as to oxidize antigenic oligosaccharide chains of endogenous tuber glycoproteins. Immunological detection of phosphotyrosylated tuber proteins using anti-(P-Tyr) IgG (Kamps and Sefton, 1988) was performed as referenced above except that the blocking buffer contained 5% (w/v) bovine serum albumin (fraction V) and 1% (w/v) ovalbumin instead of 3% (w/v) defatted milk powder.
Antigenic polypeptides were visualized using an alkaline-phosphatase-taggedsecondary antibody (Moorhead and Plaxton, 1990). Immunological specificities were confirmed by performing immunoblots in which rabbit preimmune serum was substituted for the affinity-purified IgGs. An LKB Ultroscan XL Enhanced Laser Densitometer was used to scan indicated immunoblots. Densitometric data were analysed using the LKB Gelscan XL software (version 2.1). Immunoreactive polypeptides were quantified in terms of their relative absorbance at 633 nm wavelength (A633).
Peeled and diced potato tuber tissue (5 g) was homogenized with a Polytron in 1 volume of 100 mM MES-NaOH (pH 5.8) containing 2 mM PMSF, 2 mM DTT, and 1 mM EDTA. The homogenate was centrifuged for 10 min at 13,000 g in an Eppendorf microfuge, and a 3-mL aliquot of the supernatant fluid was passed at 4° C. through a BioRad Econo-Pac 10DG desalting column that had been pre-equilibrated in homogenization buffer lacking PMSF. Aliquots (0.1 mL) of the desalted crude extract were incubated at 25° C. with and without 3 units of the purified potato phosphatase. Samples were removed at 0, 2 and 19 h and analyzed by immunoblotting using the anti-(P-Tyr) IgG as described supra. Laser densitometric scanning and immunoquantification of the blots was performed as described supra.

[5] = 5 mM; PEP 0.25 mM; no effect = ±15% control activity
[6] = addition 5 mM; PEP 0.25 mM; control = 100%
[7] = pH 5.8; read-out: Relative Activity
[8] = pH 5.8, read-out: Relative Activity
[9] = purified potato phosphatase, assay B
[10] = addition 0.001 mM; PEP 0.25 mM; control = 100%

O=C(O)C(O)C(O)C(=O)O (stereo not drawn) [tartrate]
effect on enzyme activity (potato phosphatase [1]; [5]): no effect

N[C@@H](CC(=O)O)C(=O)O [Asparatate]
Relative Activity (potato phosphatase [1]; [6]): 64%

[Mn+2] [Mn^2+]
activation of the phosphatase (potato phosphatase [2]): about 30%

NC(CCC(=O)O)C(=O)O (stereo not drawn) [Glutaamate]
activity at 5000 µM (potato phosphatase [1]; [7]): 30%

O=P(O)(O)OC1O[C@H](CO)[C@@H](O)[C@H](O)[C@H]1O (stereo partly drawn) [Glc-1-P]
activity of purified enzyme with compound as substrate (potato phosphatase [3]; assay B): little or no activity

O=C(O)CN(CCN(CC(=O)O)CC(=O)O)CC(=O)O [EDTA]
inhibition at 5000 µM (potato phosphatase [2]; pH 5.8, read-out: reduction of activity): ~65% | activity at 5000 µM (potato phosphatase [1]; [8]): 32%

[Co+2] [Co^2+]
activation of the phosphatase (potato phosphatase [2]): about 30%

O=C(O)CC(O)(CC(=O)O)C(=O)O [Mg-citrate]
effect on enzyme activity (potato phosphatase [1]; [5]): no effect

O=C(O)CN(CCOCCOCCN(CC(=O)O)CC(=O)O)CC(=O)O [EGTA]
activity at 5000 µM (potato phosphatase [1]; [7]): 72%

Nc1ncnc2c1ncn2[C@@H]1O[C@H](COP(=O)(O)OP(=O)(O)O)[C@@H](O)[C@H]1O [Mg-ADP]
Vmax (potato phosphatase [3]; [9]): 46 units/mg

[Cl-].[Na+] [NaCl]
effect on enzyme activity (potato phosphatase [1]): no effect

[F-].[Na+] [NaF]
Relative Activity (potato phosphatase [1]; [6]): 56%

NH4 Cl
effect on enzyme activity (potato phosphatase [1]; [5]): no effect

C=C1[C@@H](O)[C@@H]2O[C@]3(CC[C@H](/C=C/[C@@H](C)[C@@H]4CC(C)=C[C@@]5(O[C@H](C[C@@](C)(O)C(=O)O)CC[C@H]5O)O4)O3)CC[C@H]2O[C@@H]1[C@@H](O)C[C@H](C)[C@H]1O[C@@]2(CCCCO2)CC[C@H]1C [okadaic acid]
effect on enzyme activity (potato phosphatase [1]; 1 μM; PEP 0.25 mM; no effect = ±15% control activity): no effect

[Cl-].[K+] [KCl]
effect on enzyme activity (potato phosphatase [1]; [5]): no effect

C=C(OP(=O)(O)O)C(=O)O [PEP]
Vmax (potato phosphatase [3]; [9]): 764 units/mg

[Cl-].[Cl-].[Zn+2] [ZnCl2]
inhibition of phosphatase activity (potato phosphatase [2]; 5 mM, in place of added Mg2+): completely inhibited

O=P(O)(O)OP(=O)(O)O [PPi]
Km (potato phosphatase [3]; apparent Km, purified potato phosphatase, assay B): 4.42 mM | Vmax (potato phosphatase [3]; [9]): 1728 units/mg

Molybdate
Relative Activity (potato phosphatase [1]; [10]): 40% | Relative Activity (potato phosphatase [1]; addition 0.01 mM; PEP 0.25 mM; control = 100%): 7% | Relative Activity (potato phosphatase [1]; addition 1 mM; PEP 0.25 mM; control = 100%): 0%

C[C@@H](OP(=O)(O)O)[C@H](N)C(=O)O [P-Tbr]
Vmax (potato phosphatase [3]; [9]): 99 units/mg

O=C1O[C@H]([C@@H](O)CO)C(O)=C1O [Ascorbate]
activity at 5000 µM (potato phosphatase [1]; [7]): 12%

N[C@@H](CCC(=O)N[C@@H](CS)C(=O)NCC(=O)O)C(=O)O [GSH]
activity at 5000 µM (potato phosphatase [1]; [8]): 131%

[Ca+2] [Ca^2+]
activation of the phosphatase (potato phosphatase [2]): about 30%

O=P(O)(O)OC1C(OP(=O)(O)O)C(OP(=O)(O)O)C(OP(=O)(O)O)C(OP(=O)(O)O)C1OP(=O)(O)O (stereo not drawn) [Phytate, the salt of 1,2,3,4,5,6-cyclohexanehexolphosphoric acid]
activity at 100 µM (potato phosphatase [1]; [7]): 48%

[Cl-].[Cl-].[Mg+2] [Mg^2+]
activation of the phosphatase (potato phosphatase [2]): approximately 40%

[O]=[V]([O-])([O-])[O-] [Vanadate]
Relative Activity (potato phosphatase [1]; addition 0.005 mM; PEP 0.25 mM; control = 100%): 40% | Relative Activity (potato phosphatase [1]; addition 0.05 mM; PEP 0.25 mM; control = 100%): 7% | effect on the phosphatase-caused decrease in protein P-Tyr content [4]: negated

Nc1ncnc2c1ncn2[C@@H]1O[C@H](COP(=O)(O)O)[C@@H](O)[C@H]1O [AMP]
activity of purified enzyme with compound as substrate (potato phosphatase [3]; assay B): little or no activity

CCN1C(=O)C=CC1=O [N-ethylmaleimide]
effect on enzyme activity after preincubation of enzyme (potato phosphatase [1]; 1 mM, preincubation up to 2 min at 25° C): no effect

B1: Phosvitin: egg yolk storage phosphoprotein (protein)
chain: AEFGTEPDAKTSSSSSSASSTATSSSSSSASSPNRKKPMDEEENDQVKQARNKDASSSSRSSKSSNSSKRSSSKSSNSSKRSSSSSSSSSSSSRSSSSSSSSSSNSKSSSSSSKSSSSSSRSRSSSKSSSSSSSSSSSSSSKSSSSRSSSSSSKSSSHHSHSHHSGHLNGSSSSSSSSRSVSHHSHEHHSGHLEDDSSSSSSSSVLSKIWGRHEIYQ
modifications: phosphoserine (Ser is the predominant phosphorylated amino acid of phosvitin)
notes: egg yolk storage phosphoprotein
Relative Activity (potato phosphatase [1]; [10]): 19% | phosphoprotein phosphatase activity (potato phosphatase [3]; phosvitin at 50 μg/ml (125 .eta.M)): 220 units/mg
